Measured values from patent US20040116336A1, “Peptide derivatives” (priority 2002, published 2004).
pEC50, pIC50: −log10 of the molar value. Non-standard residues stand in square brackets, D forms with d. Residues, ends and D or L forms follow the SMILES beside them. Phe(4-Cl) = N[C@@H](Cc1ccc(Cl)cc1)C(=O)O; Cha = N[C@@H](CC1CCCCC1)C(=O)O

How the values were obtained:
APJ [1] = target: T1, APJ (Homo sapiens, UniProt P35414); experiment: Inhibitory activity on forskolin-stimulated cAMP production in CHO-A10 clone 6 cells; type: cell-based; conditions: read-out: EC50
T1 construct: expressed in transfected cells; host or cells: CHO (CHO-A10; clone 6 for the cAMP assay)
T1 sequence (P35414 1-380): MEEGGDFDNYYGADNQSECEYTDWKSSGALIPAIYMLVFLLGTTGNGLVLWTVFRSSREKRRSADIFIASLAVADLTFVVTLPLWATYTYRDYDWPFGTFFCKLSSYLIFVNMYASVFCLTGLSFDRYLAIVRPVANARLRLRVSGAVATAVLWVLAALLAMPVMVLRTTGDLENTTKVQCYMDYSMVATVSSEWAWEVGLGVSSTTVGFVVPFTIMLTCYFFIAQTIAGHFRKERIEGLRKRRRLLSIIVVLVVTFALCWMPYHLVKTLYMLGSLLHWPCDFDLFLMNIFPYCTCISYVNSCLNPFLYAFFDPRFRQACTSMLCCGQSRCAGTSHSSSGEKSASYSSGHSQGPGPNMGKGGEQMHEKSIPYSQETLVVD

APJ [2] = target: T1, APJ; experiment: Receptor binding assay-1 (125I-labeled compound in Reference Example 1, CHO-A10 membrane fraction); conditions: 125I-labeled compound in Reference Example 1 at 100 pM
Description: This product was mixed with an equal volume of an assay buffer (50 mM Tris-HCl/pH 7.5, 5 mM EDTA, 0.5 mM PMSF, 20 μg/ml leupeptin, 0.1 μg/ml pepstatin A, 4 μg/ml E-64 (Peptide Research Laboratory, Co.), 0.1% bovine serum albumin) and stored at −30° C. before use.
CHO-A10 cells were cultured, recovered with PBS containing 5 mM EDTA from a culture vessel, and suspended in the above-mentioned assay buffer not containing bovine serum albumin. The cells were homogenized 3 times at 12,000 rpm for 15 seconds by a Polytron homogenizer (manufactured by Kinematica Inc.) and then centrifuged (1000×g, 4° C., 10 minutes), and the supernatant was recovered. The precipitates were subjected again to the same procedure as above, and the respective supernatants were combined and centrifuged at 100,000×g, 4° C. for 1 hour, to recover precipitates (membrane fraction). The membrane fraction was suspended again in a small amount of the buffer, homogenized with a Teflon homogenizer and stored at −80° C. before use.
Binding assay was carried out under the following conditions. […] Measurement of non-specific binding was carried out using a well containing 1 μM unlabeled compound in place of the test sample. After the incubation was finished, a cell harvester (Packard) adapted to 96 wells and a filter unit (GF/C, Packard) were used for separation thereby capturing the membrane fraction on the filter. After the filter was sufficiently dried, Microcinti 0 (Packard) was added thereto, and using Top Count (Packard), the amount of the labeled material captured together with the membrane fraction on the filter was measured.

APJ [3] = target: T1, APJ; experiment: Receptor binding assay-2 (compound in Reference Example 2 used); conditions: compound in Reference Example 2 used as ligand; read-out: IC50

| pEC50 (APJ [1]) | pIC50 (APJ [2]; room temperature […]) | pIC50 (APJ [3]) | pIC50 (APJ [2]; room temperature 1.5 hours) | Compound |
| --- | --- | --- | --- | --- |
| 9.74 | 8.60 | 10.64 |  | CSCC[C@H](NC(=O)[C@@H]1CCCN1C(=O)CNC(=O)[C@H](CCCNC(=N)N)NC(=O)[C@H](C)NC(=O)[C@H](CO)NC(=O)[C@H](CC(C)C)NC(=O)[C@H](CCCNC(=N)N)NC(=O)[C@@H]1CCCN1C(=O)[C@H](CCCNC(=N)N)NC(=O)[C@H](CCC(N)=O)NC(=O)[C@H](CCCNC(=N)N)NC(=O)[C@@H](N)CCCNC(=N)N)C(=O)O [Compound in Ex. 18] |
| 9.39 | 8.85 | 9.92 |  | CC(C)C[C@H](NC(=O)[C@H](CCCNC(=N)N)NC(=O)[C@@H]1CCCN1C(=O)[C@@H](N)CCCNC(=N)N)C(=O)N[C@@H](CO)C(=O)N[C@@H](Cc1c[nH]cn1)C(=O)N[C@@H](CCCCN)C(=O)NCC(=O)N1CCC[C@H]1C(=O)N[C@@H](CC1CCCCC1)C(=O)N1CCC[C@H]1C(=O)N[C@@H](Cc1ccc(Cl)cc1)C(=O)O [Compound in Ex. 7] |
| 9.19 | 9.00 | 10.00 |  | CC(C)C[C@H](NC(=O)[C@H](CCCNC(=N)N)NC(=O)[C@@H]1CCCN1C(=O)[C@@H](N)CCCNC(=N)N)C(=O)N[C@@H](CO)C(=O)N[C@@H](C)C(=O)N[C@@H](CCCNC(=N)N)C(=O)NCC(=O)N1CCC[C@H]1C(=O)N[C@@H](CC1CCCCC1)C(=O)N[C@@H](Cc1ccc(Cl)cc1)C(=O)O [Compound in Ex. 4] (H-RPRLSARGP[Cha][Phe(4-Cl)]-OH; N-terminus and C-terminus assumed) |
| 9.49 | 9.04 | 10.44 |  | CSCC[C@H](NC(=O)[C@@H]1CCCN1C(=O)CNC(=O)[C@H](CCCNC(=N)N)NC(=O)[C@H](C)NC(=O)[C@H](CO)NC(=O)[C@H](CC(C)C)NC(=O)[C@H](CCCNC(=N)N)NC(=O)[C@@H]1CCCN1C(=O)[C@@H](N)CCCNC(=N)N)C(=O)N1CCC[C@H]1C(=O)N[C@@H](Cc1ccc(Cl)cc1)C(=O)O [Compound in Ex. 3] (H-RPRLSARGPMP[Phe(4-Cl)]-OH; N-terminus and C-terminus assumed) |
| 9.47 |  | 10.41 | 7.89 | CSCC[C@H](NC(=O)[C@@H]1CCCN1C(=O)CNC(=O)[C@H](CCCCN)NC(=O)[C@H](Cc1c[nH]cn1)NC(=O)[C@H](CO)NC(=O)[C@H](CC(C)C)NC(=O)[C@H](CCCNC(=N)N)NC(=O)[C@@H]1CCCN1C(=O)[C@@H](N)CCCNC(=N)N)C(=O)N1CCC[C@H]1C(=O)N[C@@H](Cc1ccc(Cl)cc1)C(=O)O [Compound in Ex. 8] |
| 9.60 | 7.47 | 10.17 |  | CSCC[C@H](NC(=O)[C@@H]1CCCN1C(=O)CNC(=O)[C@H](CCCCN)NC(=O)[C@H](Cc1c[nH]cn1)NC(=O)[C@H](CO)NC(=O)[C@H](CC(C)C)NC(=O)[C@H](CCCNC(=N)N)NC(=O)[C@@H]1CCCN1C(=O)[C@H](CCCNC(=N)N)NC(=O)[C@H](C)NC(=O)[C@H](CCCNC(=N)N)NC(=O)[C@@H](N)CCCNC(=N)N)C(=O)N1CCC[C@H]1C(=O)N[C@@H](Cc1ccccc1)C(=O)O [Compound in Ex. 25] |
| 9.60 | 7.57 | 10.24 |  | H-RPRLSARGPMPF-OH [Compound in Ex. 24] |
| 9.26 | 8.85 | 10.34 |  | CC(C)C[C@H](NC(=O)[C@H](CCCNC(=N)N)NC(=O)[C@@H]1CCCN1C(=O)[C@H](CCCNC(=N)N)NC(=O)[C@H](CCC(N)=O)NC(=O)[C@H](CCCNC(=N)N)NC(=O)[C@@H](N)CCCNC(=N)N)C(=O)N[C@@H](CO)C(=O)N[C@@H](C)C(=O)N[C@@H](CCCNC(=N)N)C(=O)NCC(=O)N1CCC[C@H]1C(=O)N[C@@H](CC1CCCCC1)C(=O)O [Compound in Ex. 6] |
